Reference: patent US20250034091A1, “Small molecule inhibitors of lanosterol synthase” (Board of Regents, The University of Texas System, priority 2022, published 2025)
Like-named read-outs stand apart in the source and are kept apart here.

How the values were obtained:
[1] = test system: Mut6 cells; experiment: Mut6 cell survival / anti-proliferative activity; type: cell-based, murine; details: read-out: IC50, viability / anti-proliferative activity in Mut6
[2] = biological target: T1, recombinant human LSS (Homo sapiens, UniProt P48449); experiment: cell-free in vitro reaction with recombinant LSS; type: biochemical
T1 construct: made in house; host or cells: E. coli
T1 sequence (P48449 1-732): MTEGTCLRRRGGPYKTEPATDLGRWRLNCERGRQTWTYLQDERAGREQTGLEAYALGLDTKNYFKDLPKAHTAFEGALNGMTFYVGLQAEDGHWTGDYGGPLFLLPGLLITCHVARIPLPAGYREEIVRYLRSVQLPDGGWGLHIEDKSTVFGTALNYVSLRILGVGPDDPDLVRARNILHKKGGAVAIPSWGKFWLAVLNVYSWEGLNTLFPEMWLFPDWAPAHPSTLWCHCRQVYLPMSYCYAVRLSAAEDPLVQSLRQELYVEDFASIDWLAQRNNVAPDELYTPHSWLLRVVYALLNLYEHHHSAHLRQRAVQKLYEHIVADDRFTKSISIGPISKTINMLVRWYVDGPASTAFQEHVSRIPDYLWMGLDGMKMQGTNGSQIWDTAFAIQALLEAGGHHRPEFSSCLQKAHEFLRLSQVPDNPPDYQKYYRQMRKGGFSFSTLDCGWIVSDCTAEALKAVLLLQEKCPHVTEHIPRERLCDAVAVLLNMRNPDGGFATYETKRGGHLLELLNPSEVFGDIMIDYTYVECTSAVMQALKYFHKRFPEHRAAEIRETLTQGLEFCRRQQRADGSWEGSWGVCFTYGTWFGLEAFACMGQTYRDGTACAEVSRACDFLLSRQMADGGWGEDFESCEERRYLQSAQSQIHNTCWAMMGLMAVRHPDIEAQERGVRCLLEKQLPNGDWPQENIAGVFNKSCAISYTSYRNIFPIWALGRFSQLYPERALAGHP
Method: Recombinant LSS purified from E. coli converted OS to lanosterol in a time- and dose-dependent manner. Of note, lanosterol production was saturated over time, which may be the consequence of substrate depletion or product inhibition. Regardless, we evaluated enzymatic activity over 30 minutes with 64 μM of substrate, conditions under which the reaction remained linear. […] Similar experiments with three different analogs (3, 6, 14) support the notion that inhibition of Lss enzyme activity correlates with anti-GBM activity in Mut6 cells. It was notable that the concentration of compound required to inhibit LSS activity in vitro is substantially higher than the concentration required to block cell growth. One possible explanation for this difference is that the conditions of the in vitro reaction, which includes non-ionic detergents in an aqueous buffer, influence substrate or compound solubility or binding.
An outstanding question regarding the shunt pathway is how LSS can still convert DOS into EPL in the presence of high concentrations of an inhibitor. […] To address this question, we assessed the efficacy of in vitro conversion of DOS to EPL by LSS. […] Therefore, the conversion of DOS to EPL by LSS in the presence of MM0299 is not simply explained by an increased affinity LSS for DOS. […]

Compound | IC50 [1] [µM] | IC50 ([2]; 30 minutes, 64 μM substrate, read-out: IC50, LSS in vitro activity (OS to lanosterol)) [µM] | IC50 ([2]; in vitro, read-out: IC50, DOS conversion to EPL by LSS) [µM]
C=CCN(C)CCCCCCOc1ccc(C(=O)c2ccc(Br)cc2)c(F)c1 [Ro 48-8071, reference compound] | 0.0112 |  | 
COc1ccc(C(=O)COc2ccc(N3C(=O)[C@@H]4[C@@H]5C=C[C@@H]([C@H]6C[C@@H]56)[C@@H]4C3=O)cc2)cc1 [compound 1, (3aR,4R,4aR,5aS,6S,6aS)-2-(4-(2-(4-Methoxyphenyl)-2-oxoethoxy)phenyl)-4,4a,5,5a,6,6a-hexahydro-4,6-ethenocyclopropa[f]isoindole-1,3(2H,3aH)-dione] |  | 2.22 | 1.6
